Source: publication PMC7255801, “Disease-associated mutations in the human TRPM3 render the channel overactive via two distinct mechanisms” (eLife, 2020)

Target: T1, wild-type hTRPM3α2 (Homo sapiens, UniProt Q9HCF6)
T1 construct: host or cells: HEK293
Assay: Intracellular Ca2+ assay (GCaMP6f) in 96-well plates, HEK293 cells, wild type channel
Assay type: cell-based
Method: Intracellular Ca^2+ measurements were performed using a Flexstation-3 96‐well plate reader with rapid well injection (Molecular Devices) as described earlier ([Hughes et al., 2019]) with some modifications. Briefly Human Embryonic Kidney 293 (HEK293) cells were purchased from American Type Culture Collection (ATCC), Manassas, VA, (catalogue number CRL-1573), RRID:CVCL_0045; cell identity was verified by STR analysis by ATCC. HEK293 cells were cultured in MEM supplemented with 10% FBS and 100 IU/ml penicillin plus 100 µg/ml streptomycin in 5% CO2 at 37°C. Additional cell authentication was not performed, but passage number of the cells was monitored, and cells were used up to passage number 25–30 from purchase, when a new batch of cells was thawed with low passage number; cells were tested for the lack of mycoplasma infection. HEK293 cells were transfected with hTRPM3α2-GFP, or its mutants (200 ng) and GCaMP6 (1 μg) using the Effectene reagent (Qiagen). […] GCaMP6 signal was measured at excitation wavelengths 485 nm and fluorescence emission was detected at 525 nm. Sampling interval was 0.86 s and four parallel reads were performed for each condition. […] For measurements at 37°C the MEM medium used to culture the cells was replaced with the measurement solution preheated to 37°C, and the plate was placed in the plate reader warmed to 37°C using its built-in temperature controller.

T1 sequence (Q9HCF6 1-1709 isoform Q9HCF6-5): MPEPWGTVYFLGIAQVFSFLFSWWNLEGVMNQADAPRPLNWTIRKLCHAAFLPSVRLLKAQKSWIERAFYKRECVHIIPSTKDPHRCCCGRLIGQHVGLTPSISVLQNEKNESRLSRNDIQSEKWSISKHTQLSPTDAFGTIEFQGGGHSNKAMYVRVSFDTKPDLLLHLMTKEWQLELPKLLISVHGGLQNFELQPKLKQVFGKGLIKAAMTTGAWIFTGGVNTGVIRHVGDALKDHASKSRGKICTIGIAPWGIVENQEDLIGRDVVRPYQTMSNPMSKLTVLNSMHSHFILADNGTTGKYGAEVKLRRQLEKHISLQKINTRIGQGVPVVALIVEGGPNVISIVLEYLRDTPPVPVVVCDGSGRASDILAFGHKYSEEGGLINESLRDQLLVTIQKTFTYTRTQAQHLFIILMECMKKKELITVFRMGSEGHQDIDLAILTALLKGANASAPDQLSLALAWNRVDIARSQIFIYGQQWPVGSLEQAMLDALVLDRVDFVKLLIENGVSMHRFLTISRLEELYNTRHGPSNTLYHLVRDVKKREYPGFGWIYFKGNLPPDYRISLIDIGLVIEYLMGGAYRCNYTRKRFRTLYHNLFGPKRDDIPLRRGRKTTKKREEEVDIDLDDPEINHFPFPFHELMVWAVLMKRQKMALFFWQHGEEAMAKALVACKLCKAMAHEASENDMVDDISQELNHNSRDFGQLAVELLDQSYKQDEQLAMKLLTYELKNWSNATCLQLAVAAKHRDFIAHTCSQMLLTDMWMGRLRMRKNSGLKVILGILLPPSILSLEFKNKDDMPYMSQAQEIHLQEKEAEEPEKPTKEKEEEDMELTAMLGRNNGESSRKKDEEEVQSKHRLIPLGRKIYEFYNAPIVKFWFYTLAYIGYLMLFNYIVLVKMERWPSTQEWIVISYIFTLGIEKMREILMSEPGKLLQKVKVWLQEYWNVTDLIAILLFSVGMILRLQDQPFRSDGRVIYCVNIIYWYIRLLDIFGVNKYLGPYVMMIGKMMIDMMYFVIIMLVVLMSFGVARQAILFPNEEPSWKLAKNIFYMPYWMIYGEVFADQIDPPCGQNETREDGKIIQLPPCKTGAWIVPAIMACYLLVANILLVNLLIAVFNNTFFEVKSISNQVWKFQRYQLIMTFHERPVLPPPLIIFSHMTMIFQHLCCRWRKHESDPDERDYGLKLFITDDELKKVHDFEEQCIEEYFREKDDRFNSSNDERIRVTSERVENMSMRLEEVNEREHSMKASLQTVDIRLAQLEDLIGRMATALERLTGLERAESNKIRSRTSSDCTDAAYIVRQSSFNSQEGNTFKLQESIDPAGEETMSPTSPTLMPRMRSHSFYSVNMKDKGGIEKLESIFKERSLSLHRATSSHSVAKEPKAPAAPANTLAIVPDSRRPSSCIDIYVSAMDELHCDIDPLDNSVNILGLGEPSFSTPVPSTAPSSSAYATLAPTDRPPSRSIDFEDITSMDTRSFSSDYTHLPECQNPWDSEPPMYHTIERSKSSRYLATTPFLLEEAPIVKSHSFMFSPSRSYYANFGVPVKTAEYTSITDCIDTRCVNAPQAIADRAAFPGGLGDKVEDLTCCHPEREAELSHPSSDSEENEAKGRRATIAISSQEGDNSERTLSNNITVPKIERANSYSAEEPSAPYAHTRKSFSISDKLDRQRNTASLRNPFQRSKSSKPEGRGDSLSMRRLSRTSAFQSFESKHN

Effect on basal cytoplasmic Ca2+ levels (wild type TRPM3, room temperature (21°C)): no effect | Effect on basal Ca2+ levels at 37°C (wild type channels, 50 μM, 37°C): reduced basal Ca^2+ levels
SMILES: CCC1(c2ccccc2)C(=O)NCNC1=O [primidone]
